Measurements reported in patent US12128028B2, “Heterocyclic sulfonamide derivatives and pharmaceutical uses thereof” (METRION BIOSCIENCES LIMITED, priority 2018, dated 2024).
pIC50: −log10 of the molar value.

These compounds were tested against human Kv1.3 (Homo sapiens (Human), UniProt P22001) (assay: Kv1.3 potency evaluation, automated patch clamp electrophysiology (QPatch HT) in CHO-Kv1.3 cells). Details: whole-cell QPatch HT, % inhibition of charge, step to +30 mV, four concentrations, N≥3 cells, read-out: hKv1.3 IC50.
Sequence of human Kv1.3 (P22001 whole entry): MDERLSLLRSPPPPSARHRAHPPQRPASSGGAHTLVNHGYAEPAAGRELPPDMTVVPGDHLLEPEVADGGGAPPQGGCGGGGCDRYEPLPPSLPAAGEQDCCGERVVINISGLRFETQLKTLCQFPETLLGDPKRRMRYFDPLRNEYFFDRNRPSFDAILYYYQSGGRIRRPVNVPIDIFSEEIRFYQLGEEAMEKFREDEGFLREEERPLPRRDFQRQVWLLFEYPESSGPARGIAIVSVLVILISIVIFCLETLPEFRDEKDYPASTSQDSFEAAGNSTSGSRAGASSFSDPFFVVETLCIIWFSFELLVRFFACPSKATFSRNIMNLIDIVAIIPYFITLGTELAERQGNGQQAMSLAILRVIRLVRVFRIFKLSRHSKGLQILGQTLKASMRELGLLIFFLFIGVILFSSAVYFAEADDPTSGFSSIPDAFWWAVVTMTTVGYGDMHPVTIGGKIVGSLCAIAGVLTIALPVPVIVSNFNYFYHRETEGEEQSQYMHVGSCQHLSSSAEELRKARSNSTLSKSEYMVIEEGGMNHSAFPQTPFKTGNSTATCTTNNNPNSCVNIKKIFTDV
Type: cell-based
In short: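 Automated whole-cell patch clamp in CHO cells stably expressing human Kv1.3; steps from −80 to +30 mV (500 ms) at 0.067 Hz. Four cumulative concentrations after vehicle (0.1-0.3% DMSO); charge inhibition vs vehicle fitted by four-parameter logistic for IC50, N≥3 cells.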

Question: With `CC1(C)N=C(C23CC(N(Cc4ccc(Cl)cc4)S(=O)(=O)c4ccc[nH]c4=O)(C2)C3)N[C@H]1C(=O)NCCC(F)(F)F` (mixture of isomers) [Example 295] as the compound, how does the pIC50 read?
Answer: 4.67

Question: With `CC1(C)N=C(C23CC(N(Cc4ccc(Cl)c(F)c4)S(=O)(=O)c4ccccc4)(C2)C3)N[C@H]1C(=O)NC12CC(C1)C2` [Example 1, (R)-N-(Bicyclo[1.1.1]pentan-1-yl)-2-(3-(N-(4-chloro-3-fluorobenzyl)phenylsulfonamido)bicyclo[1.1.1]pentan-1-yl)-4,4-dimethyl-4,5-dihydro-1H-imidazole-5-carboxamide] as the compound, how does the pIC50 read?
Answer: 7.46

Question: With `CC1(C)N=C(C23CC(N(Cc4ccc(Cl)c(Cl)c4)S(=O)(=O)c4ccccc4)(C2)C3)N[C@H]1C(=O)NCC(F)(F)C(F)(F)F` [Example 5] as the compound, how does the pIC50 read?
Answer: 6.86

Question: `CC1(C)N=C(C23CC(N(Cc4ccc(F)cc4)S(=O)(=O)c4ccccc4)(C2)C3)NC1C(=O)NCCC(F)(F)F` (centres unmarked) [Example 97] was tested. Which pIC50 did it give?
Answer: 7.18

Question: How did the pIC50 turn out when `CC1(C)N=C(C23CC(N(Cc4ccc(C(F)(F)F)cc4)S(=O)(=O)c4ccc(F)cc4)(C2)C3)N[C@H]1C(=O)NCC1(F)CCC1` [Example 145] was run?
Answer: 7.06

Question: How did the pIC50 turn out when `CC1(C)N=C(C23CC(N(Cc4ccc(Cl)cc4)S(=O)(=O)c4ccccc4)(C2)C3)NC1C(=O)NCCC(F)(F)F` (centres unmarked) [Example 148] was run?
Answer: 7.05

Question: How did the pIC50 turn out when `CC1(C)N=C(C23CC(N(Cc4ccc(C(F)(F)F)cc4)S(=O)(=O)c4ccc(F)cc4)(C2)C3)NC1C(=O)N1CCCCC1` (centres unmarked) [Example 157] was run?
Answer: 7.03

Question: With `CC1(C)N=C(C23CC(N(Cc4ccc(C(F)(F)F)cc4)S(=O)(=O)c4ccc(F)cc4)(C2)C3)NC1C(=O)NCC1CC1(F)F` (centres unmarked) [Example 161] as the compound, how does the pIC50 read?
Answer: 7.01

Question: With `CC1(C)N=C(C23CC(N(Cc4ccc(C(F)(F)F)cc4)S(=O)(=O)c4ccc(F)cc4)(C2)C3)NC1C(=O)NCC1(C#N)CCC1` (centres unmarked) [Example 164] as the compound, how does the pIC50 read?
Answer: 7.00

Question: `CCCC1(C(=O)NC(C)C)CN=C(C23CC(N(Cc4ccc(C(F)(F)F)cc4)S(=O)(=O)c4ccc(F)cc4)(C2)C3)N1` (centres unmarked) [Example 182] was tested. Which pIC50 did it give?
Answer: 6.97

Question: `CC1(C)N=C(C23CC(N(Cc4ccc(C(F)(F)F)cc4)S(=O)(=O)c4ccc(F)cc4)(C2)C3)NC1C(=O)NCC1CC(F)(F)C1` (centres unmarked) [Example 186] was tested. Which pIC50 did it give?
Answer: 6.96

Question: How did the pIC50 turn out when `CC1(C)N=C(C23CC(N(Cc4ccc(C(F)(F)F)cc4)S(=O)(=O)c4ccc(F)cc4)(C2)C3)NC1C(=O)NCC1CCC1` (centres unmarked) [Example 192] was run?
Answer: 6.94

Question: How did the pIC50 turn out when `CC1(C)N=C(C23CC(N(Cc4ccc(C(F)(F)F)cc4)S(=O)(=O)c4ccc(F)cc4)(C2)C3)NC1C(=O)NCCC(F)(F)F` (centres unmarked) [Example 193] was run?
Answer: 6.94

Question: How did the pIC50 turn out when `CC(C)NC(=O)C1NC(C23CC(N(Cc4ccc(C(F)(F)F)cc4)S(=O)(=O)c4ccc(F)cc4)(C2)C3)=NC1(C)C` (centres unmarked) [Example 208] was run?
Answer: 6.84

Question: `CC1(C)N=C(C23CC(N(Cc4ccc(C(F)(F)F)cc4)S(=O)(=O)c4ccccc4)(C2)C3)NC1C(=O)NCCC(F)(F)F` (centres unmarked) [Example 220] was tested. Which pIC50 did it give?
Answer: 6.77

Question: How did the pIC50 turn out when `O=C(NCCC(F)(F)F)[C@@H]1NC(C23CC(N(Cc4ccc(C(F)(F)F)cc4)S(=O)(=O)c4ccc(F)cc4)(C2)C3)=NC12CC2` [Example 224] was run?
Answer: 6.75

Question: `O=C(NCC1CCC1)C1NC(C23CC(N(Cc4ccc(C(F)(F)F)cc4)S(=O)(=O)c4ccc(F)cc4)(C2)C3)=NC12CCC2` (centres unmarked) [Example 229] was tested. Which pIC50 did it give?
Answer: 6.70

Question: How did the pIC50 turn out when `CC1(NC(=O)C2NC(C34CC(N(Cc5ccc(C(F)(F)F)cc5)S(=O)(=O)c5ccc(F)cc5)(C3)C4)=NC2(C)C)CCC1` (centres unmarked) [Example 232] was run?
Answer: 6.68

Question: How did the pIC50 turn out when `CC1(C)N=C(C23CC(N(Cc4ccc(C(F)(F)F)cc4)S(=O)(=O)c4ccc(F)cc4)(C2)C3)NC1C(=O)N1CCC(F)(F)CC1` (centres unmarked) [Example 236] was run?
Answer: 6.67

Question: How did the pIC50 turn out when `COC1(CNC(=O)C2NC(C34CC(N(Cc5ccc(C(F)(F)F)cc5)S(=O)(=O)c5ccc(F)cc5)(C3)C4)=NC2(C)C)CCC1` (centres unmarked) [Example 237] was run?
Answer: 6.66

Question: `O=C(NCC1CCC1)C1NC(C23CC(N(Cc4ccc(C(F)(F)F)cc4)S(=O)(=O)c4ccc(F)cc4)(C2)C3)=NC12CC2` (centres unmarked) [Example 239] was tested. Which pIC50 did it give?
Answer: 6.64

Question: How did the pIC50 turn out when `NC(=O)C1(Cc2ccccc2)CN=C(C23CC(N(Cc4ccc(C(F)(F)F)cc4)S(=O)(=O)c4ccc(F)cc4)(C2)C3)N1` (centres unmarked) [Example 263] was run?
Answer: 6.40

Question: How did the pIC50 turn out when `CC(C)C1(C(=O)NCC2CCC2)CN=C(C23CC(N(Cc4ccc(C(F)(F)F)cc4)S(=O)(=O)c4ccc(F)cc4)(C2)C3)N1` (centres unmarked) [Example 266] was run?
Answer: 6.38

Question: `CC1(C)N=C(C23CC(N(Cc4ccc(C(F)(F)F)cc4)S(=O)(=O)c4ccc(F)cc4)(C2)C3)NC1C(=O)NCC1(O)CCC1` (centres unmarked) [Example 271] was tested. Which pIC50 did it give?
Answer: 6.31

Question: How did the pIC50 turn out when `CCCC1(C(=O)NCC2CCC2)CN=C(C23CC(N(Cc4ccc(C(F)(F)F)cc4)S(=O)(=O)c4ccc(F)cc4)(C2)C3)N1` (centres unmarked) [Example 273] was run?
Answer: 6.26

Question: How did the pIC50 turn out when `CN(C)C(=O)[C@H]1CN=C(C23CC(N(Cc4ccc(C(F)(F)F)cc4)S(=O)(=O)c4ccc(F)cc4)(C2)C3)N1` [Example 277] was run?
Answer: 6.23

Question: With `O=C(NCC1CCC1)C1(Cc2ccccc2)CN=C(C23CC(N(Cc4ccc(C(F)(F)F)cc4)S(=O)(=O)c4ccc(F)cc4)(C2)C3)N1` (centres unmarked) [Example 279] as the compound, how does the pIC50 read?
Answer: 6.22

Question: How did the pIC50 turn out when `CC([C@@H]1CN=C(C23CC(N(Cc4ccc(C(F)(F)F)cc4)S(=O)(=O)c4ccc(F)cc4)(C2)C3)N1)N(C)C` (some centres unmarked) [Example 281] was run?
Answer: 6.20

Question: `CC(C)CC1(C(=O)NCC2CCC2)CN=C(C23CC(N(Cc4ccc(C(F)(F)F)cc4)S(=O)(=O)c4ccc(F)cc4)(C2)C3)N1` (centres unmarked) [Example 284] was tested. Which pIC50 did it give?
Answer: 6.10
